Experimental data published in EP3733658B1, “PRENYLATED BENZOPYRANES AS PPAR AGONISTS” (Universitat de València, priority 2017, dated 2019).

Key:
human neutrophils = test: Annexin V / propidium iodide flow cytometry of apoptosis and survival, neutrophils; type: cell-based; settings: 24 h, compared to the vehicle
Method: In addition, the apoptosis and survival rate for human neutrophils and HUVEC was determined by double staining with annexin V and propidium iodide (PI) by flow cytometry.
Cytofluorometric analysis of apoptosis and survival. The kit FITC Annexin V Apoptosis Detection kit (BD Bioscience, San Jose, CA) was used. The staining protocol and all the reagents were supplied with the commercial kit. HUVEC were separated from the culture flasks by accutase (StemPro® Accutase® Cell dissociation reagent, Thermofischer Scientific Waltham, MA). Both cell types were incubated at 37°C for 24h in the presence or absence of the test compounds. Confluent HUVEC and freshly isolated neutrophils were washed, resuspended in binding buffer 1x (1 × 10^6 cells/mL) and stained with annexin V conjugated with FITC and propidium iodide (PI) as described in the manufacturer's instructions. The cells were analyzed in a BD FACSVerse Flow Cytometer (BD Biosciences, San Jose, CA) and differentiated as early apoptosis cells (annexin V^+ and PI^-), late apoptosis cells and/or necrotic cells (annexin V^+ and PI^+), and live cells (annexin V^- and PI^-).

CXCL16 = test: Flow cytometry of TNFα-induced CXCL16 expression in HUVEC; type: cell-based, human; settings: 3 µM, TNFα 20 ng/mL 24 h
Method: The cells were collected from the flasks using accutase (StemPro® Accutase® Cell Dissociation Reagent, ThermoFischer Scientific, Waltham, MA).
Then they were washed and incubated for 1 h with a APC-conjugated mAb antibody against human VCAM-1 (100 µg/mL; clone STA, BioLegend, San Diego, CA), a FITC- conjugated mAb against human ICAM-1 (400 µg/mL; clone HA58, BioLegend, San Diego, CA), a PE-conjugated mAb against human CX3CL1 (1.25 µg/mL; clone 51637, R&D Systems, Minneapolis, MN) or with a APC-conjugated mAb antibody against human CXCL16 (clone 256213, R&D Systems, Abingdon, UK), all at a dilution of 1:25 in 3% BSA/PBS. The samples were analyzed using a BD FACSVerse Flow Cytometer (BD Biosciences, San Jose, CA).

MCP-1 = test: Treatment of ob/ob mice: MCP-1 mRNA in WAT by real-time PCR; type: in vivo; settings: oral, 30 mg/Kg/d, 4 days
Method: (§1) 6 animals were used in each group in independent experiments (n=6).
The total RNA was extracted from mouse WAT by homogenization. Reverse transcription was performed with 1000 ng of total RNA using the inverse transcription kit TaqMan (Applied Biosystems, Thermo Fisher Scientific, Waltham, MA) and converted to cDNA by standard methods. The cDNA was amplified with specific feeders for the mouse monocytic chemoattractant protein 1 (MCP-1 or CCL2, Mm00441242_m1) in a Real Time PCR 7900HT apparatus (Applied Biosystems, Thermo Fisher Scientific, Waltham, MA) using Universal Master Mix (Applied Biosystems, Thermo Fisher Scientific, Waltham, MA). All feeders were designed by Applied Biosystems. The relative quantification of the various transcriptions was determined by the 2^-ΔΔCt method using GAPDH (Applied Biosystems, Thermo Fisher Scientific, Waltham, MA) as endogenous and normalized control for the control group.

[1] = system: white adipose tissue (WAT); test: Treatment of ob/ob mice: white adipose tissue weight, histology and F4/80 immunohistochemistry; type: in vivo; settings: oral, 4 days
Source text: […]. […] […].
The samples of epididymal white adipose tissue (WAT) and liver were fixed in 4% paraformaldehyde, embedded in paraffin, sectioned with a microtome (Leica RM2245, Leica Biosystems, Wetzlar, Germany) and mounted in microscope slides Superfrost® plus (Thermo Fisher Scientific, Waltham, MA). Cross sections of WAT and liver were obtained. At least 10 slides were examined containing ≈ 4 cross sections of tissue (5 µm thickness) of each animal. Hematoxilin and eosin (H&E) staining was performed of the WAT and liver. Inflammatory infiltration in WAT was measured as previously described (Toyoda et al., 2008). After inactivation of the peroxidase (3% H2O2) and blocking with goat serum (Abcam, Cambridge, UK), cross sections of WAT were incubated overnight (4°C) with the following primary (mAb) monoclonal antibody: a rabbit anti-mouse F4/80 mAb (dilution 1:100, Abcam, Cambridge, UK). A specific marking was detected with a secondary goat HRP-conjugated anti-rabbit antibody (dilution 1:500, Dako, Copenhagen, Denmark). To confirm the specificity of the antibodies, control antibodies with the same isotope (Abcam, Cambridge, UK) or secondary antibody were used only as negative controls. […] Five fields of each WAT tissue section were photographed (Axio Observer A1, Carl Zeiss microscope, Thornwood, NY) digitalized and analyzed (Imaged software 1.48V, Bethesda, […]). Quantification was performed double blind with codes.

[2] = system: human umbilical vein endothelial cells (HUVEC); test: MTT colorimetric cell viability assay, HUVEC; type: cell-based; settings: 30 µM, 24 h
Method: To evaluate potential adverse effects (cytotoxicity) of the compounds of the invention, the compounds 1 and 2 for use according to the present invention, compound 8 of the invention, and the reference compounds were evaluated at concentrations of 30 and 100 µM in human neutrophils (Fig. 1A) and primary cultures of human umbilical vein endothelial cells (HUVEC) (Fig. 1B) using two different techniques: MTT colorimetry assay and flow cytometry analysis for cellular apoptosis and survival. In addition, the synthetic compound 9 of the invention was evaluated at 10, 30 and 100 µM (Fig. 2).
MTT assay. The viability of neutrophils and HUVEC was determined by the MTT colorimetric assay MTT (3(4,5-dimethylthiazol-2-yl)-2,5-diphenyltetrazoyl bromide).
Human umbilical vein endothelial cells (HUVEC) were isolated with the collagenase treatment and maintained in a human specific endothelial base medium (EBM-2) supplemented with endothelial growth medium (EGM-2) and 10% FCS. Cells of the first passage were cultured until their confluence in 24-well plates. Before starting each experiment, the cells were incubated for 24 h in a medium containing 1% FBS.
100 µL of neutrophils and HUVEC (2 × 10^5 cells/mL) suspension in supplemented RPMI medium were added to each well of a 96-well plate. The cells were incubated in absence and/or presence of the compounds at 37°C for24h. An MTT solution was prepared (2 mg/mL in PBS). 100 µL of the MTT solution were added to each well and incubated at 37°C for an additional 3 h. The supernatants were discarded and 200 µL of DMSO were added to each well to dissolve the precipitated formazan. The optical densities at two wavelengths (560 and 630 nm) were measured in a spectrophotometer (Infinite M200, Tecan, Mannedorf, Switzerland).

liver = test: Treatment of ob/ob mice: liver weight and liver triglycerides; type: in vivo; settings: oral, 4 days
Source text: as §1

## CCOC(=O)CCC(C)=CCCC1(C)CCc2cc(OCc3ccc(F)cc3)ccc2O1 (stereo not shown) [Compound 9]
Human neutrophils; 30 µM
  effect on neutrophil survival: 1.07%
Human neutrophils; 100 µM
  effect on cell survival: 1.55%
CXCL16
  expression of CXCL16 induced by TNFα: significant decrease
MCP-1
  expression of MCP-1 in WAT: significantly reduced
[1]; 30 mg/Kg/d
  number of macrophages (F4/80) in WAT: significantly reduce
[1]
  weight of epididymal white adipose tissue (WAT) compared to the control group: did not significantly increase
[1]; compound 9 10 and 30 mg/Kg/d (dose-dependent), rosiglitazone 10 mg/Kg/d
  mean area of the adipocytes in WAT: significant decrease
[2]
  cytotoxicity (MTT), with respect to the vehicle: 12%
liver; 30 mg/Kg/d
  triglyceride content in the liver compared to the ob/ob control group: did not accumulate significantly
liver
  liver weight with respect to the ob/ob control group: non-significant weight increase
